Laboratory results as given in US6486174B2, “Tetrahydroisoquinoline-3-carboxylic acid alkoxyguanidines as integrin antagonists” (3-Dimensional Pharmaceuticals, Inc., priority 2000, dated 2002).
pIC50: −log10 of the molar value. Where a name gives a salt, the structure may show the parent alone.

Each molecule was assayed against T1, human αvβ3 (Homo sapiens, UniProt P05106+P06756) (assay: αvβ3-vitronectin assay (ELISA, inhibition of biotinylated vitronectin binding)). Conditions: plate-coated human αvβ3, biotinylated human vitronectin 0.5 μg/mL, room temperature; read-out: αvβ3 IC50 (Inhibition of the αvβ3-Vitronectin Interaction).
T1 construct: purchased Chemicon CC1019
T1 sequence (P06756 31-889 limits assumed): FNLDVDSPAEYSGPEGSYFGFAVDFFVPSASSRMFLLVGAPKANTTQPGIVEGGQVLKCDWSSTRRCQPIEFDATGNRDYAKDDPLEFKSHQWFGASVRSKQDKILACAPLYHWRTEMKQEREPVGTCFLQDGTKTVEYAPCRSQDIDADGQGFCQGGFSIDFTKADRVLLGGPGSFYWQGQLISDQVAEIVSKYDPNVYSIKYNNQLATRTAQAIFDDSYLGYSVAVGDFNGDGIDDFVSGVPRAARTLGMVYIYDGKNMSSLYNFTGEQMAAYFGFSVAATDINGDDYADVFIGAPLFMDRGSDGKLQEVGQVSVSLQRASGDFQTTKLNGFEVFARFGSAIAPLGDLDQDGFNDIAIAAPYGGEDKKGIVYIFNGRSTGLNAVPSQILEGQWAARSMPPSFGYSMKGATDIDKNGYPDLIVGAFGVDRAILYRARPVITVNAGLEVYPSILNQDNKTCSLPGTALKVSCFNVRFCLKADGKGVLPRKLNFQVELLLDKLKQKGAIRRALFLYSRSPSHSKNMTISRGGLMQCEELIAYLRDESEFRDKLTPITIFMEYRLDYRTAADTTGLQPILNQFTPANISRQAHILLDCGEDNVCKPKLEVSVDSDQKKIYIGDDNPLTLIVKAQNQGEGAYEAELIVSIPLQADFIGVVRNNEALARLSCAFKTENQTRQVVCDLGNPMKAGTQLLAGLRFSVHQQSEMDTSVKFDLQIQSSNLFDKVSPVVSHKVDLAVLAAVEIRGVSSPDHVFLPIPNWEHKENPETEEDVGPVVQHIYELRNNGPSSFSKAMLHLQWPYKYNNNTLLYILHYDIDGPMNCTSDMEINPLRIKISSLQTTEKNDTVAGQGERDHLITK
T1 sequence (P06756 891-1048 partner limits assumed): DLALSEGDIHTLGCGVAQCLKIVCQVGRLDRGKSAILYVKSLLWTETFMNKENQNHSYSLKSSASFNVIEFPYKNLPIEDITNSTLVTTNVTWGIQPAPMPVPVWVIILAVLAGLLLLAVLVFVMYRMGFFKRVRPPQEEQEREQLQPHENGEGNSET
T1 sequence (P05106 27-788): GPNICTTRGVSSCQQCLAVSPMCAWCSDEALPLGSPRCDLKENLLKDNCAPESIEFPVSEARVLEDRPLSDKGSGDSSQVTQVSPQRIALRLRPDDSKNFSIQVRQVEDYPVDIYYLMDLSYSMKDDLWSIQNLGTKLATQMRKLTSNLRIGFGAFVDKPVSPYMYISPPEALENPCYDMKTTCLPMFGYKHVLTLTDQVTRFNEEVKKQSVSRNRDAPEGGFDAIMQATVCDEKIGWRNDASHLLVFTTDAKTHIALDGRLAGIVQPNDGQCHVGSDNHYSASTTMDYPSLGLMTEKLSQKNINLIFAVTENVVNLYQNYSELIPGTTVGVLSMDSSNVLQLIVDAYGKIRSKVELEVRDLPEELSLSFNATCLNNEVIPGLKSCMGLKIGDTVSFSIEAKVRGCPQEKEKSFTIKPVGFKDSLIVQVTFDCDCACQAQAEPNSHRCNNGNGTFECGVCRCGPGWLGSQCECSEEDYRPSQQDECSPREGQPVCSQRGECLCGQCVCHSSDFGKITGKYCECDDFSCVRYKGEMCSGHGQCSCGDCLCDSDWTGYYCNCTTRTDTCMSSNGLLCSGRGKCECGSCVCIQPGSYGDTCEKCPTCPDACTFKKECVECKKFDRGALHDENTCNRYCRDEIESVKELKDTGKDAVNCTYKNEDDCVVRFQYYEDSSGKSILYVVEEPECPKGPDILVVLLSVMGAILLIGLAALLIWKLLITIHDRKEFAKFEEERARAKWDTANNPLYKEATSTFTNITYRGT
Method: The assay was based on the method of Niiya (Niiya, K., et al, Blood 70:475-483 (1987)). All the steps were performed at room temperature. Costar 9018 flat-bottom 96-well ELISA plates were coated overnight with 100 μL/well of 0.4 μg/mL human αvβ3 (Chemicon CC1019) in TS buffer (20 mM Tris-HCl pH 7.5, 150 mM NaCl, 1 mM CaCl2, 1 mM MgCl2, 1 mM MnCl2). Plates were blocked for 2 hours with 200 μL/well of TS buffer containing 1% BSA (TSB buffer), and washed 3 times with 200 μL/well of PBST buffer. Controls or test compound were mixed with 0.5 μg/mL of human vitronectin (Chemicon CC080) that had been biotinylated in-house with sulfo-NHS-LC-LC-biotin (Pierce 21338, 20:1 molar ratio), and 100 μL/well of these solutions (in TSB buffer) were incubated for 2 hours. The plate was then washed 5 times with PBST buffer, and 100 μL/well of 0.25 μg/mL NeutrAvidin-horseradish peroxidase conjugate (Pierce 31001) in TSB buffer was incubated for 1 hour. Following a 5-fold PBST buffer wash, the plate was developed by adding 100 μL/well of 0.67 mg o-phenylenediamine dihydrochloride per mL of 0.012% H2O2, 22 mM sodium citrate, 50 mM sodium phosphate, pH 5.0 at room temperature. The reaction was stopped with 50 μL/well of 2M H2SO4, and the absorbence at 492 nm was recorded. Percent (%) inhibition was calculated from the average of two separate determinations relative to buffer controls (no test compound added), and a four parameter fit (Marquardt, D. W., J. Soc. Indust. Appl. Math. 11:431-441 (1963)) was used to estimate the half maximal inhibition concentration (IC50).

Structure (SMILES) | pIC50
N=C(N)NOCCCOc1ccc2c(c1)CN(S(=O)(=O)c1ccccc1)[C@H](C(=O)O)C2 [Example 2, (3S)-7-[3-(Amidinoaminooxy)propoxy]-2-(phenylsulfonyl)-1,2,3,4-tetrahydroisoquinoline-3-carboxylic Acid Trifluoroacetic Acid Salt] | 5.96
N=C(N)NOCCCOc1ccc2c(c1)CN(S(=O)(=O)c1ccc3ccccc3c1)[C@H](C(=O)O)C2 [Example 3, (3S)-7-[3-(Amidinoaminooxy)propoxy]-2-(2-naphthylsulfonyl)-1,2,3,4-tetrahydroisoquinoline-3-carboxylic Acid Trifluoroacetic Acid Salt] | 6.30
COc1ccc(OC)c(S(=O)(=O)N2Cc3cc(OCCCONC(=N)N)ccc3C[C@H]2C(=O)O)c1 [Example 1, (3S)-7-[3-(Amidinoaminooxy)propoxy]-2-[(2,5-dimethoxyphenyl)sulfonyl]-1,2,3,4-tetrahydroisoquinoline-3-carboxylic acid trifluoroacetic Acid Salt] | 7.14
